Test system: lymphocytes separated from spleen and thymus
Experiment: Lymphocyte proliferation assay (alamar blue)
Type: cell-based, BALB/c mice
Details: 72 hours after addition of stimulant, FIG. 2
Procedure: Lymphocytes were prepared from the spleen and thymus of BALB/c mice and were incubated with supernatants derived from growing L. reuteri ATCC 55730 in the presence and absence of glycerol (50 mM). L. reuteri ATCC 55730 was selected as it is a known good producer of 3-HPA and thus follows the selection criteria of the invention. Control incubations were performed with glycerol alone, media alone and known lymphocyte proliferation stimulants.
Separation of spleen and thymus lymphocytes. BALB/c mice were sacrificed by cervical dislocation, and their thymus was separated, immersed in Hanks' balanced salt solution (HBSS) and torn piecemeal to obtain a single cell. The single cell was centrifuged through double layers in Histopaque-1083 (Sigma) to obtain lymphocytes. These cells were washed two times with IMDM, and living cells were counted according to tryphan blue exclusion technique and used in the experiment at an adjusted final concentration of 1×10^7/mL.
Preparation of bacterial lysates. L. reuteri and Listeria monocytogenes lysates were prepared as mentioned in the phagocytic assay.
Preparation of L. reuteri supernatants. L. reuteri supernatant was also prepared as mentioned in the phagocytic assay.
Lymphocyte proliferation assay. Lymphocyte proliferation assay was carried out using lymphocytes suspended in IMDM+10% horse serum at 4×10^6 per well. The lymphocytes were treated with varying concentrations of L. reuteri, L. monocytogenes cell lysate and L. reuteri supernatant along with a reference stimulant, of which concentrations and conditions were as follows:
In the results reported in Table 2, MRS and glycerol sol. controls were used by adjusting pH in broths which were not incubated with L. reuteri, and the following symbols used: ConA: concanavalin A, PWM: pokeweed mitogen, PHA: phytohemaaglutinin, LPS: liphopholysaccharide from Salmonella enterica serovar Typhimurium.
Stimulants including ConA were added into a well containing lymphocytes in accordance with each condition, 3 hours before alamar blue was added at 10% concentration. 72 hours after the addition of each stimulant, the level of lymphocyte proliferation was determined by the value of OD570 nm-OD600 nm.
The result of lymphocyte proliferation was represented as Stimulation Index (SI), which is (ODtreatment-ODmedia control)/ODcell control value. In the case of L. reuteri supernatant treatment group, however, values of J and K treatment groups, but not IMDM+10% horse serum, were used as OD media control value.

Row | Substance | lymphocyte proliferation (Stimulation Index)
1 | concanavalin A [ConA] | marked stimulation of lymphocyte proliferation
2 | liphopholysaccharide from Salmonella enterica serovar Typhimurium [LPS] | marked stimulation of lymphocyte proliferation
3 | phytohemaaglutinin [PHA] | marked stimulation of lymphocyte proliferation
4 | pokeweed mitogen [PWM] | marked stimulation of lymphocyte proliferation

Source: US20100330128A1, “Method of improving immune function in mammals using lactobacillus strains with certain lipids” (priority 2005, published 2010)
